In PMC10184130:

Target: T1, human MASP2 (Homo sapiens, UniProt O00187)
T1 construct: Recombinant human MASP2 (298–686 aa) fused with both the N-terminal IgG signal peptide; IgG signal peptide (N); His tag (C); made in house; host or cells: Expi293 cells
Experiment: Human MASP2 enzyme assay
Assay type: biochemical
Settings: supplementary csv
Experimental: Recombinant human MASP2 (298–686 aa) fused with both the N-terminal IgG signal peptide and the C-terminal His tag was expressed in Expi293 cells and purified. The assay was performed in a 384-well black plate in a total volume of 6 μL of the assay buffer 1. After 20 nL of compound solution was added to the plate, 3 μL of substrate solution containing a 20 μmol/L Z-Gly-Arg-SBzl peptide and 20 μmol/L BES-Thio (FUJIFILM Wako, Osaka, Japan) was added to the plate. Then, 0.6 nmol/L human MASP2 was added to the plate and incubated at room temperature for 60 min. The fluorescence at an excitation wavelength of 485 nm and an emission wavelength of 535 nm was detected using an EnVision multilabel plate reader.

T1 sequence (O00187 298-686): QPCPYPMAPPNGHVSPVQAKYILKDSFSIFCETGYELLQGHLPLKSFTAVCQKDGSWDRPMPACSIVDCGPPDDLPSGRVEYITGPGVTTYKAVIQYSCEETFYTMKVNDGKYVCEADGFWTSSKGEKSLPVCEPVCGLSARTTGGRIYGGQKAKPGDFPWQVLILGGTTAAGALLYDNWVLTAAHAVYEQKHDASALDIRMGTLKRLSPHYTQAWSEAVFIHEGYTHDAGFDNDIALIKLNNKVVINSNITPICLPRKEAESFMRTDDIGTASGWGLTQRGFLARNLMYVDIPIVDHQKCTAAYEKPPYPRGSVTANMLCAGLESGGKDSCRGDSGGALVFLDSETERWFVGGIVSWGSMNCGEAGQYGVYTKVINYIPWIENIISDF

Which IC50 does the source give for `Cc1cc([C@H]2CN(c3cc(F)c4c(N)nncc4c3)CCN2c2cccc(F)c2)no1` [Compound (R)-8, 8-Fluoro-6-[(3R)-4-(3-fluorophenyl)-3-(5-methyl-1,2-oxazol-3-yl)piperazin-1-yl]phthalazin-1-amine] here?
The IC50 was > 30 µM.
